From patent publication US20240260575A1, “AGRICULTURAL AND HORTICULTURAL FUNGICIDAL COMPOSITION” (Nippon Soda Co., Ltd., priority 2021, published 2024) come the findings set out here.

Test [1] deals with gray mold pathogen (Botrytis cinerea). Nature of the test: Gray mold antimicrobial test (growth inhibition rate). Type of test: cell-based. On the set-up: growth inhibition rate, component (II) alone: concentration or dose not given beside the values. As for the experimental part:
(Test Example) Gray Mold Antimicrobial Test (Growth Inhibition Rate)
Conidiospores of a gray mold pathogen (Botrytis cinerea) were added to and dispersed in a yeast extract sucrose medium, and a component (I) and a component (II) dissolved in dimethyl sulfoxide at predetermined concentrations were further added and mixed thereto, and the resulting solution was dispensed onto a 96-well microplate and cultivated in the dark at 20° C. for 3 to 5 days. After the cultivation, the turbidity at a wavelength of 405 nm was measured by a microplate reader and compared with that in the untreated case to determine the growth inhibition rate (%) for the gray mold pathogen. The test was duplicately carried out. The results are shown in Tables 3 to 7 together with expected values calculated as follows.
Expected values were calculated by using Colby's equation: E=M+N−MN/100. Here, E denotes an expected value (%) of a growth inhibition rate, M denotes a growth inhibition rate (%) in using a component (I) alone, and N denotes a growth inhibition rate (%) in using a component (II) alone.
If the actually measured growth inhibition rate (%) of a composition of a component (I) and a component (II) is higher than the expected value, E, the composition of a component (I) and a component (II) is said to have exerted synergistic effect.

The subject of test [2] is cucumber powdery mildew pathogen (Sphaerotheca fuliginea). As to the kind of experiment: Cucumber powdery mildew control test. It is filed as in vivo. On the set-up: scale not given here. The conditions noted are these: for control value: sprayed onto cucumber seedlings. The source says: (Test Example) Cucumber Powdery Mildew Control Test 1) Preparation of Drug Solution for Test […] The other components (II) were each formulated into an aqueous solution or suspension having a predetermined concentration. 2) Test A mixed solution of a component (I) and a component (II) at a predetermined concentration was sprayed onto cucumber seedlings (variety: “Shimo-shirazu, creeping type”, cotyledon stage). After natural drying at room temperature, conidiospores of a cucumber powdery mildew pathogen (Sphaerotheca fuliginea) were inoculated by blushing off, and the seedlings were kept in a thermostatic room at 20° C. using a 12 hour light/dark cycle for 7 to 10 days. The states of lesion development on leaves were examined by comparing with that for the untreated case, and the control values were determined. The test was duplicately carried out. The results are shown in Tables 8 to 12 together with expected values calculated as follows. Expected values were calculated by using Colby's equation: […] Here, E denotes an expected value of a control value, M denotes a control value in using a component (I) alone, and N denotes a control value in using a component (II) alone. If the actually measured control value of a composition of a component (I) and a component (II) is higher than the expected value, E, the composition of a component (I) and a component (II) is said to have exerted synergistic effect.

Where [3] appears, read: Table 3, ppm: Ipflufenoquin 10, Cyflufenamid 10, Thiophamate-methyl 0.4, Iminoctadine acetate 0.08, Iminoctadine albesilate 0.08, Triflumizole 0.0032, Picarbutrazox 0.08, Prothioconazole 0.0032, Mefentrifluconazole 0.00064, Cymoxanil 10, Fludioxonil 0.016, Metyltetraprole 0.4, Florylpicoxamid 0.08, Fluxapyroxad 0.08, Fluopyram 0.4, Potassium phosphite 10, Fipronil 2, Chlorantraniliprole 0.016, Aba.

Setting [4] is: Table 4, ppm: Ipflufenoquin 10, Cyflufenamid 2, Thiophamate-methyl 0.4, Iminoctadine acetate 0.08, Iminoctadine albesilate 0.4, Picarbutrazox 10, Prothioconazole 0.0032, Mefentrifluconazole 0.0006, Cymoxanil 10, Fludioxonil 0.016, Metyltetraprole 10, Fluxapyroxad 0.016, Fluopyram 0.4, Potassium phosphite 10, Fipronil 2, Chlorantraniliprole 0.016, Abamectin 0.016, Sulfoxaflor 10, Tebufenozide 0.016.

Where [5] appears, read: Table 7, ppm: Ipflufenoquin 0.08, Cyflufenamid 0.08, Thiophamate-methyl 2, Iminoctadine acetate 0.0001, Iminoctadine albesilate 0.4, Triflumizole 0.4, Prothioconazole 0.0032, Mefentrifluconazole 0.08, Cymoxanil 0.08, Captan 0.08, Fludioxonil 0.08, Metyltetraprole 0.0032, Florylpicoxamid 0.0006, Fluxapyroxad 0.016, Fluopyram 0.0032, Potassium phosphite 0.016, Fipronil 2, Chlorantraniliprole 0.016.

[6] abbreviates: Table 8, ppm or dilution rate: Thiophanate-methyl 1.6, Triflumizole 25, Cyflufenamid 1.6, Iminoctadine acetate 0.25, Iminoctadine albesilate 1, Picarbutrazox 2000, Ipflufenoquin 1, Bacillus subtilis ×250, Pseudomonas rhodesiae ×2000, Sodium hydrogen carbonate 250, Potassium bicarbonate 250, Orange oil 4000, Linalool 4000, Thymol 100, Neem oil 2000, Prothioconazole 1.6, Mancozeb 63, Mineral oil 500.

Where [7] appears, read: Table 9, ppm or dilution rate: Thiophanate-methyl 1.6, Triflumizole 25, Cyflufenamid 1.6, Iminoctadine acetate 0.25, Iminoctadine albesilate 1, Picarbutrazox 2000, Ipflufenoquin 1, Bacillus subtilis ×250, Pseudomonas rhodesiae ×2000, Sodium hydrogen carbonate 250, Potassium bicarbonate 250, Orange oil 1000, Linalool 4000, Thymol 100, Neem oil 2000, Prothioconazole 1.6, Mancozeb 63, Mineral oil 500.

Setting [8] is: Table 10, ppm or dilution rate: Thiophanate-methyl 1.6, Triflumizole 25, Cyflufenamid 1.6, Iminoctadine acetate 0.25, Iminoctadine albesilate 1, Picarbutrazox 2000, Ipflufenoquin 1, Bacillus subtilis ×1000, Pseudomonas rhodesiae ×2000, Sodium hydrogen carbonate 250, Potassium bicarbonate 250, Orange oil 1000, Linalool 4000, Thymol 100, Neem oil 2000, Prothioconazole 1.6, Mancozeb 63, Mineral oil 5.

Setting [9] is: Table 11, ppm or dilution rate: Thiophanate-methyl 1.6, Triflumizole 25, Cyflufenamid 1.6, Iminoctadine acetate 1, Iminoctadine albesilate 1, Picarbutrazox 2000, Ipflufenoquin 1, Bacillus subtilis ×1000, Pseudomonas rhodesiae ×2000, Sodium hydrogen carbonate 250, Potassium bicarbonate 250, Orange oil 1000, Linalool 4000, Thymol 100, Neem oil 2000, Prothioconazole 1.6, Mancozeb 63, Mineral oil 500.

The mark [10] stands for this setting: Table 12, ppm or dilution rate: Thiophanate-methyl 1.6, Triflumizole 25, Cyflufenamid 1.6, Iminoctadine acetate 0.25, Iminoctadine albesilate 1, Picarbutrazox 2000, Ipflufenoquin 1, Bacillus subtilis ×1000, Pseudomonas rhodesiae ×2000, Sodium hydrogen carbonate 1000, Potassium bicarbonate 250, Orange oil 1000, Linalool 4000, Thymol 400, Neem oil 2000, Prothioconazole 1.6, Mancozeb 63, Mineral oil.

As to `COc1ccc(F)cc1C(O)Cn1cc(/C(C)=N/OC(C)C)c(=O)n(C[C@H](C)NC(=O)C(C)C)c1=O` (stereo partly drawn) [Compound 3, N-((2S)-1-(3-(2-(5-fluoro-2-methoxyphenyl)-2-hydroxyethyl)-5-((E)-1-(isopropoxyimino)ethyl)-2,6-dioxo-3,6-dihydropyrimidin-1(2H)-yl)propan-2-yl)isobutyramide], the growth inhibition rate is on record as 74% in test [1] (Table 5, Examination 1, Compound 3 (0.25 or 0.063 ppm) alone or mixed with component (II)); 63% in test [1] (Table 5, Examination 2, Compound 3 (0.25 or 0.063 ppm) alone or mixed with component (II)); 48% in test [1] (Table 5, Examination 3, Compound 3 (0.25 or 0.063 ppm) alone or mixed with component (II)); 14% in test [1] (Table 5, Examination 4, Compound 3 (0.25 or 0.063 ppm) alone or mixed with component (II)). In addition, the control value is reported as 72 in test [2] (Table 10, Examination 1, Compound 3 0.4 ppm alone or mixed with component (II)); 68 in test [2] (Table 10, Examination 2, Compound 3 0.4 ppm alone or mixed with component (II)); 56 in test [2] (Table 10, Examination 3, Compound 3 0.4 ppm alone or mixed with component (II)); 61 in test [2] (Table 10, Examination 4, Compound 3 0.4 ppm alone or mixed with component (II)); 34 in test [2] (Table 10, Examination 5, Compound 3 0.4 ppm alone or mixed with component (II)); 67 in test [2] (Table 10, Examination 6, Compound 3 0.4 ppm alone or mixed with component (II)). The control value in test [2] (Table 10, Examination 7, Compound 3 0.4 ppm alone or mixed with component (II)) is reported as 67.
As to `COc1ccc(F)cc1C(Cn1cc(/C(C)=N/OC(C)C)c(=O)n(C[C@H](C)NC(=O)C(C)C)c1=O)OCCC#N` (stereo partly shown) [Compound 5], the growth inhibition rate in test [1] (Table 7, Examination 1, Compound 5 (0.25 or 0.063 ppm, head span unclear) alone or mixed with component (II)) is 61%; in test [1] (Table 7, Examination 2, Compound 5 (0.25 or 0.063 ppm, head span unclear) alone or mixed with component (II)), 43%; in test [1] (Table 7, Examination 3, Compound 5 (0.25 or 0.063 ppm, head span unclear) alone or mixed with component (II)) it was 13%; in test [1] (Table 7, Examination 4, Compound 5 (0.25 or 0.063 ppm, head span unclear) alone or mixed with component (II)), 3%; in test [1] (Table 7, Examination 5, Compound 5 (0.25 or 0.063 ppm, head span unclear) alone or mixed with component (II)), 3%; in test [1] (Table 7, Examination 6, Compound 5 (0.25 or 0.063 ppm, head span unclear) alone or mixed with component (II)), 2%. In addition, the control value in test [2] (Table 12, Examination 1, Compound 5 0.4 ppm alone or mixed with component (II)) is listed as 83; in test [2] (Table 12, Examination 2, Compound 5 0.4 ppm alone or mixed with component (II)) it was 60; in test [2] (Table 12, Examination 3, Compound 5 0.4 ppm alone or mixed with component (II)), 56; in test [2] (Table 12, Examination 4, Compound 5 0.4 ppm alone or mixed with component (II)) it was 50; in test [2] (Table 12, Examination 5, Compound 5 0.4 ppm alone or mixed with component (II)) it was 67; in test [2] (Table 12, Examination 6, Compound 5 0.4 ppm alone or mixed with component (II)), 50. The control value in test [2] (Table 12, Examination 7, Compound 5 0.4 ppm alone or mixed with component (II)) was 67.
In the case of `COc1ccc(F)cc1C(O)Cn1cc(/C(C)=N/OC(C)C)c(=O)n(C[C@@H](NC(=O)C(C)(C)C)C(C)C)c1=O` (stereo partly shown) [Compound 2], the growth inhibition rate in test [1] (Table 4, Examination 1, Compound 2 (0.25 or 0.063 ppm) alone or mixed with component (II)) is given as 69%; in test [1] (Table 4, Examination 2, Compound 2 (0.25 or 0.063 ppm) alone or mixed with component (II)), 53%; in test [1] (Table 4, Examination 3, Compound 2 (0.25 or 0.063 ppm) alone or mixed with component (II)) it was 46%; in test [1] (Table 4, Examination 4, Compound 2 (0.25 or 0.063 ppm) alone or mixed with component (II)) it was 41%; in test [1] (Table 4, Examination 5, Compound 2 (0.25 or 0.063 ppm) alone or mixed with component (II)), 35%. For the same compound, the control value in test [2] (Table 9, Examination 1, Compound 2 0.4 ppm alone or mixed with component (II)) was determined as 67; in test [2] (Table 9, Examination 2, Compound 2 0.4 ppm alone or mixed with component (II)), 71; in test [2] (Table 9, Examination 3, Compound 2 0.4 ppm alone or mixed with component (II)), 67; in test [2] (Table 9, Examination 4, Compound 2 0.4 ppm alone or mixed with component (II)), 67; in test [2] (Table 9, Examination 5, Compound 2 0.4 ppm alone or mixed with component (II)), 59; in test [2] (Table 9, Examination 6, Compound 2 0.4 ppm alone or mixed with component (II)), 67.
In the case of `CCCCCCCCCCCCc1ccc(S(=O)(=O)O)cc1.CCCCCCCCCCCCc1ccc(S(=O)(=O)O)cc1.CCCCCCCCCCCCc1ccc(S(=O)(=O)O)cc1.NC(N)=NCCCCCCCCNCCCCCCCCN=C(N)N` [Iminoctadine albesilate], the “growth inhibition rate, component (II) alone” value in test [1] (setting [3]) turned out to be 6%; in test [1] (setting [4]), 81%; in test [1] (Table 5, ppm: Ipflufenoquin 10, Cyflufenamid 10, Thiophamate-methyl 0.4, Iminoctadine albesilate 0.4, Picarbutrazox 0.0032, Mefentrifluconazole 0.0006, Cymoxanil 10, Captan 0.0032, Fludioxonil 0.016, Metyltetraprole 10, Florylpicoxamid 0.0001, Fluxapyroxad 0.016, Fluopyram 0.0032, Potassium phosphite 0.08, Fipronil 2, Chlorantraniliprole 0.016, Abamectin 0.4, Sulfoxaflor 0.4, Tebufenozide 10), 81%; in test [1] (setting [5]) it was 81%. Also, the “control value, component (II) alone” value in test [2] (setting [6]) is 50; in test [2] (setting [7]) it was 67; in test [2] (setting [8]), 50; in test [2] (setting [9]), 67; in test [2] (setting [10]) it was 17.
On to `CC(=O)O.CC(=O)O.CC(=O)O.NC(N)=NCCCCCCCCNCCCCCCCCN=C(N)N` [Iminoctadine acetate], for which the “growth inhibition rate, component (II) alone” value is recorded as 25% in test [1] (setting [3]), 56% in test [1] (setting [4]) and 0% in test [1] (setting [5]). In addition, the “control value, component (II) alone” value in test [2] (setting [6]) is 0; in test [2] (setting [7]) it was 50; in test [2] (setting [8]), 0; in test [2] (setting [9]), 50; in test [2] (setting [10]) it was 17.
